# Measurements: patent US20120128646A1, “METHODS AND COMPOSITIONS FOR THE TREATMENT OF AUTOIMMUNE DISEASE” (priority 2009, published 2012)
# “Also recorded” adds a separate entry of the source.
# Columns and labels:
# [1] = tested on: T cell clone BDC-10.1; experiment: IFNγ production by T cell clone in antigen assay (ELISA); format: cell-based, NOD mouse; conditions: peptide or preparation as antigen
# Excerpt: (§1) The T cell clones are maintained in culture by periodic re-stimulation with irradiated NOD splenocytes and islet cells or β-membrane. To assay for antigen, resting responder T cells (i.e., for example, the cells at the end of the two-week restimulation period) are co-cultured for 24 hr with elicited peritoneal macrophages (PEC) as APC and either a test sample or control antigen. Control antigen will be in the form of islet cells or the whole-cell membrane fraction (i.e., for example, a β-membrane fraction). As described above, unlysed β-membrane is stored in aliquots at −80° C. for this purpose. Negative controls include responder cells alone and responders plus APC.
# (§2) At the end of the culture period, supernatants are collected from the cultures and IFNγ production is measured by ELISA. Wells positive for IFNγ are indicative of T cells responding to antigen; the amount of cytokine produced is calculated from a standard curve and is directly proportional to the amount of antigen present.
# (§3) Antigenicity of islet cells, cellular and biochemical fractions, peptides, or insect cells expressing IA^g7-peptide constructs, was assessed through responses of T cell clones or hybridomas made by fusing T cell clones to the TCR^− version of T cell lymphoma, BW5147. White et al., “Two better cell lines for making hybridomas expressing specific T cell receptors” J Immunol 143:1822-1825 (1989). T cell clone cultures typically contained 2×10^4 responder T cells, 2.5×10^4 NOD peritoneal exudate cells (PEC) as APC, and antigen (SEC/IEX fractions, peptides, islet cells); all assays were performed with β-Mem as a positive control. IFNγ was measured by ELISA of culture supernatants. For cultures with T cell hybridomas, antigen/MHC activation was assessed by IL-2 production measured by a bioassay using the HT-2 T cell line. Walker et al., “Antigenspecific. I region-restricted interactions in vitro between tumor cell lines and T cell hybridomas” J Immunol 128:2164-2169 (1982). Synthetic peptides were either produced in the Molecular Resource Center at National Jewish Health or obtained from CHI Scientific, Maynard, Mass.
# [2] = tested on: T cell clone BDC-5.10.3; experiment: as above; format: cell-based, NOD mouse; conditions: peptide or preparation as antigen
# Excerpt: as §1, §2, §3
# [3] = tested on: T cell clone BDC-2.5; experiment: as above; format: cell-based, NOD mouse; conditions: peptide or preparation as antigen
# Excerpt: as §1, §2, §3
# [4] = tested on: soluble IA^g7; experiment: Peptide binding to IA^g7: competition with biotinylated HEL peptide; design: species or system NOD mouse; conditions: competition with biotinylated pHEL 11 μM, pH 5.6, overnight
# Excerpt: FIG. 15B: A series of ChgA peptides tested for their ability to compete with a biotinylated HEL peptide for binding to soluble IA^g7. pS3-positive control peptide. IE^k moth cytochrome c-negative control peptide. N=2. Y axis: Percent of IA^g7-bound biotinylated HEL peptide as compared to IE^k. X axis: Log concentration of inhibitor peptide.
# In order to confirm the unique binding register of the WE14 peptide, a series of peptides comprising N-terminal extensions and/or C-terminal deletions of WE14 were evaluated for their ability to stimulate the BDC-2.5 T cell clone (FIG. 6a) or to bind to IA^g7. See, FIG. 15A. […] See, FIG. 15B. Further, a pS3 mimotope was used as the positive control peptide and an irrelevant peptide from moth cytochrome c, pMCC, was the negative control peptide. The data were analyzed to determine the stimulatory or binding capacity of the peptides relative to WE14. See, FIG. 15C.
# Soluble IA^g7 with covalently attached pHEL was treated with thrombin to cleave the linker attaching the peptide to the IA^g7 β chain. Kozono et al., “Production of soluble MHC class II proteins with covalently bound single peptides” Nature 369:151-154 (1994). Samples (0.5 μg) were incubated with a soluble biotinylated version of pHEL, Biotin-GGGMKRHGLDNYRGYSL (SEQ ID NO: 56) (11 μM), either alone or in the presence of various concentrations of potential competitors peptides, in 15 μL of pH 5.6 buffer overnight at room temperature. The sample was diluted to 100 μL of PBS in a well of a 96-well ELISA plate coated with an anti-IA^g7 monoclonal antibody, OX-6 (BD Pharmaceuticals). The captured IA^g7 was washed several times with PBS and the bound bio-pHEL detected with alkaline phosphatase coupled Extravadin (Sigma) and […].
# [5] = tested on: T cell clone BDC-10.1; conditions: Yoshida et al 2002; cited from earlier work
# [6] = tested on: T cell clone BDC-2.5; conditions: Yoshida et al 2002; cited from earlier work
# [7] = tested on: T cell clone PD-12.4.4; experiment: IFNγ production by insulin-reactive control T cell clone (ELISA); format: cell-based, NOD mouse; conditions: negative control clone
# Excerpt: as §1, §2
# Antigenicity of islet cells, cellular and biochemical fractions, peptides, or insect cells expressing IA^g7-peptide constructs, was assessed through responses of T cell clones or hybridomas made by fusing T cell clones to the TCR^− version of T cell lymphoma, BW5147. […] IFNγ was measured by ELISA of culture supernatants. […]
# [8] = tested on: BDC-10.1 T cell hybridoma; experiment: CD69 upregulation on T cell hybridoma co-cultured with insect cells infected with linked peptide I-A^g7 viruses; format: cell-based, mouse; conditions: hybridomas 3 × 10^5/mL, 3 hrs co-culture with infected insect cells 1 × 10^5/mL
# Procedure: (§4) FIG. 13F: The p3 glycine of pS3 was mutated to other amino acids. The effect of the mutations on early activation of the three BDC hybridomas was assessed by CD69 induction. The results are shown as the percent of cells expressing CD69 relative to those activated with the unmutated pS3 peptide. […] The sequences of the pS3 and ChgA peptide are also shown, highlighting the amino acids at the p3 position.
# (§5) A mutational analysis was performed of 3 L mimotope at positions 2 and 3 followed by their respective ability to stimulate BDC-2.5, BDC-10.1 and BDC-5.10.3 hybridomas with 3 L mimotope substituted peptides. See, Table 3.
# [9] = tested on: BDC-2.5 T cell hybridoma; experiment: as above; format: cell-based, mouse; conditions: hybridomas 3 × 10^5/mL, 3 hrs co-culture with infected insect cells 1 × 10^5/mL
# Procedure: as §4, §5
# [10] = tested on: BDC-5.10.3 T cell hybridoma; experiment: as above; format: cell-based, mouse; conditions: hybridomas 3 × 10^5/mL, 3 hrs co-culture with infected insect cells 1 × 10^5/mL
# Procedure: as §4, §5
# [11] = biological target: WE14 peptide (…), natural cleavage product of chromogranin A (mouse); experiment: cell-based or functional assay
substance,measurement,setting,value
EDKRWSRMD [ChgA aa354-362; ED9 = WD5 extended with EDKR],"Stimulation of T cell clone BDC-10.1 (IFNγ response), result in words",[1],did not stimulate
same,"Stimulation of T cell clone BDC-5.10.3 (IFNγ response), result in words",[2],did not stimulate
same,"Stimulation of T cell clone BDC-2.5 (IFNγ response), result in words",[3],did not stimulate
same,"Stimulation of T cell clone BDC-2.5 (IFNγ response), result in words",[3]; listed as ED9,failed to stimulate
same,"IA^g7 binding, result in words",[4],did not bind
"EDKRWSRMDQLAKELTAE [EE18, WE14 extended by 4 amino acids (EDKR)]","Stimulation of T cell clone BDC-2.5 (IFNγ response), result in words",[3],virtually eliminated
same,"IA^g7 binding, result in words",[4],no effect
HIPIWARMD [peptide mimotope of Yoshida et al 2002],Mimotope activation of BDC-10.1,[5],activate
HRPIWARMD [peptide mimotope of Yoshida et al 2002],Mimotope activation of BDC-2.5,[6],highly stimulatory; also recorded: activate
"SHLVEALYLVCGERG [insulin peptide, reference compound]","Response of insulin-reactive T cell clone PD-12.4.4 (IFNγ), result in words",[7],responded
SRLPLWVRME,Stimulation BDC-10.1 (upregulation of CD69),[8],+ (A positive response (+) indicates >40% of the hybridoma population stained above a background staining of 1% for unstimulated or of the same T cell hybridoma)
same,Stimulation BDC-2.5 (upregulation of CD69),[9],+ (A positive response (+) indicates >40% of the hybridoma population stained above a background staining of 1% for unstimulated or of the same T cell hybridoma)
same,Stimulation BDC-5.1.3 (upregulation of CD69),[10],+ (A positive response (+) indicates >40% of the hybridoma population stained above a background staining of 1% for unstimulated or of the same T cell hybridoma)
SRLRLWVRME,Stimulation BDC-10.1 (upregulation of CD69),[8],+ (A positive response (+) indicates >40% of the hybridoma population stained above a background staining of 1% for unstimulated or of the same T cell hybridoma)
same,Stimulation BDC-2.5 (upregulation of CD69),[9],+ (A positive response (+) indicates >40% of the hybridoma population stained above a background staining of 1% for unstimulated or of the same T cell hybridoma)
same,Stimulation BDC-5.1.3 (upregulation of CD69),[10],+ (A positive response (+) indicates >40% of the hybridoma population stained above a background staining of 1% for unstimulated or of the same T cell hybridoma)
SRLSLWVRME,Stimulation BDC-10.1 (upregulation of CD69),[8],+ (A positive response (+) indicates >40% of the hybridoma population stained above a background staining of 1% for unstimulated or of the same T cell hybridoma)
same,Stimulation BDC-2.5 (upregulation of CD69),[9],+ (A positive response (+) indicates >40% of the hybridoma population stained above a background staining of 1% for unstimulated or of the same T cell hybridoma)
same,Stimulation BDC-5.1.3 (upregulation of CD69),[10],+ (A positive response (+) indicates >40% of the hybridoma population stained above a background staining of 1% for unstimulated or of the same T cell hybridoma)
SRLTLWVRME,Stimulation BDC-10.1 (upregulation of CD69),[8],+ (A positive response (+) indicates >40% of the hybridoma population stained above a background staining of 1% for unstimulated or of the same T cell hybridoma)
same,Stimulation BDC-2.5 (upregulation of CD69),[9],+ (A positive response (+) indicates >40% of the hybridoma population stained above a background staining of 1% for unstimulated or of the same T cell hybridoma)
same,Stimulation BDC-5.1.3 (upregulation of CD69),[10],+ (A positive response (+) indicates >40% of the hybridoma population stained above a background staining of 1% for unstimulated or of the same T cell hybridoma)
TCR of the T cell clone BDC-2.5 (on the T cell clone or on a hybridoma bearing this TCR),percentage of maximal IFN-γ response at 100 mg/ml β-membrane (% of maximal IFN-γ response),[11],15
same,"potency in activating the BDC clones, relative to the pS3 mimotope (fold less potent than pS3)",[11],1000
TCR of the T cell clone BDC-10.1 (on the T cell clone or on a hybridoma bearing this TCR),"potency in activating the BDC clones, relative to the pS3 mimotope (fold less potent than pS3)",[11],1000
WL11: WE14 truncated by 3 C-terminal amino acids (WSRMDQLAKEL),"Stimulation of T cell clone BDC-2.5 (IFNγ response), result in words",[3],decreasing stimulatory activity
same,"IA^g7 binding, result in words",[4],indistinguishable from the negative control peptide
